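Each compound was tested at five concentrations against cells in 96-well plates for 48 hours. Here, GI50 denotes the concentration required for 50% inhibition of growth. TGI: total growth inhibition.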
Assays:
Experiment in all cases: NCI tumour cell line growth inhibition, 48 h
OVCAR-5 ovarian = test system: OVCAR-5 ovarian
KM12 colon = test system: KM12 colon
SK-MEL-28 melanoma = test system: SK-MEL-28 melanoma
RXF 393 renal = test system: RXF 393 renal
M14 melanoma = test system: M14 melanoma
SN12C renal = test system: SN12C renal
UACC-257 melanoma = test system: UACC-257 melanoma
A498 renal = test system: A498 renal
NCI-H23 lung = test system: NCI-H23 lung
HCC-2998 colon = test system: HCC-2998 colon

| SMILES | TGI (OVCAR-5 ovarian) | TGI (KM12 colon) | TGI (SK-MEL-28 melanoma) | TGI (RXF 393 renal) | TGI (M14 melanoma) | TGI (SN12C renal) | TGI (UACC-257 melanoma) | TGI (A498 renal) | TGI (NCI-H23 lung) | TGI (HCC-2998 colon) | GI50 (OVCAR-5 ovarian) | GI50 (KM12 colon) | GI50 (SK-MEL-28 melanoma) | GI50 (RXF 393 renal) | GI50 (M14 melanoma) | GI50 (SN12C renal) | GI50 (UACC-257 melanoma) | GI50 (A498 renal) | GI50 (NCI-H23 lung) | GI50 (HCC-2998 colon) |
| --- | --- | --- | --- | --- | --- | --- | --- | --- | --- | --- | --- | --- | --- | --- | --- | --- | --- | --- | --- | --- |
| CCCCNC(=S)Nn1c(-c2ccccc2)nc2ccccc2c1=O | > 100 µM | > 100 µM | > 100 µM | > 100 µM | > 100 µM | > 100 µM | > 100 µM | > 100 µM | > 100 µM |  |  |  |  |  |  |  |  |  |  |  |
| C[N+](C)(C)CC(=O)N/N=C(/C=C/c1ccccc1)CC1OC(=O)c2ccccc21 (configuration not stated) | > 10 µM | > 100 µM | > 100 µM | > 100 µM | > 100 µM | > 100 µM | > 100 µM | > 100 µM | > 10 µM | > 100 µM |  |  |  |  |  |  |  |  |  |  |
| CC(C)Oc1cc(OCC(=O)O)cc(C(=O)N(CCC(N)=O)C(=O)Nc2ccc(C(=O)O)cc2OC(C)C)c1 | > 100 µM | > 100 µM | > 100 µM | > 100 µM | > 100 µM | > 100 µM | > 100 µM | > 100 µM | > 100 µM | > 100 µM | > 100 µM | > 100 µM | > 100 µM | > 100 µM | > 100 µM | > 100 µM | > 100 µM | > 100 µM | > 100 µM | > 100 µM |
| CC/C=C/[C@@H]1C=C[C@@H]2CCC[C@H]2[C@@H]1CC[C@H](O)[C@H](C)N | 3.55 µM | 3.07 µM | 3.01 µM | 4.17 µM | 2.98 µM | 18.6 µM |  | 5.58 µM | 3.98 µM | 2.74 µM | 1.69 µM | 1.7 µM | 1.66 µM | 1.94 µM | 1.6 µM | 4.25 µM |  | 1.62 µM | 1.78 µM | 1.42 µM |
| CC(=O)OC1COC(N2C(=O)C(=O)c3c(C)cc(Cl)nc32)C(OC(C)=O)C1OC(C)=O (configuration not stated) | > 100 µM | > 100 µM | > 100 µM | > 100 µM | > 100 µM | > 100 µM | > 100 µM | > 100 µM | > 100 µM |  |  |  |  |  |  |  |  |  |  |  |
| COC1CC(OC2OC(CO)C(O)C(O)C2O)/C(=C\C#N)C(O)C1OC (configuration not stated) | > 100 µM | > 100 µM | > 100 µM | > 100 µM | > 100 µM | > 100 µM | > 100 µM | > 100 µM | > 100 µM | > 100 µM |  |  |  |  |  |  |  |  |  |  |
| C=C1C(=O)OC(CCCCCCCC)C1C(=O)O (configuration not stated) | 31.8 µM | 34.4 µM | 29.1 µM | 23.2 µM | 29.7 µM | 28.5 µM | 25 µM | 33.3 µM | 29.2 µM | 31.4 µM | 17 µM | 18.3 µM | 15 µM | 10.7 µM | 14.6 µM | 14.3 µM | 11.6 µM | 17.4 µM | 14.2 µM | 17.5 µM |
| CC1CN(CCO)CC(C)O1 (configuration not stated) | > 100 µM | > 100 µM | > 100 µM | > 100 µM | > 100 µM | > 100 µM | > 100 µM | > 100 µM | > 100 µM | > 100 µM |  |  |  |  |  |  |  |  |  |  |
| CC(C)NC(=O)OCc1nnn2c1C(OC(=O)NC(C)C)CC2 (configuration not stated) | > 100 µM | > 100 µM | > 100 µM | > 100 µM | > 100 µM | > 100 µM | > 100 µM |  | > 100 µM | > 100 µM |  |  |  |  |  |  |  |  |  |  |
| CCCCN(CCCC)C(=Nc1ccccc1)N(CCCC)CCCC | 27.8 µM | 22.6 µM | 11.8 µM | 25.6 µM |  |  | 37.5 µM | 37.8 µM | 5.97 µM | 15.4 µM |  |  |  |  |  |  |  |  |  |  |
| CC(C)c1ccc2c(c1)CCC1C(C)(C)[C@@H](O)CC[C@]21C (some centres not stated) | 41.7 µM | 71.5 µM | > 100 µM | 54.3 µM | 72.4 µM | 40.2 µM |  |  | 93 µM | 58.1 µM |  |  |  |  |  |  |  |  |  |  |
| O=C(c1ccccc1)c1nnn(Cc2cccc(Cl)c2)c1C(=O)c1ccccc1 | > 100 µM | > 100 µM | > 100 µM | > 100 µM | > 100 µM |  | > 100 µM |  | > 100 µM | > 100 µM |  |  |  |  |  |  |  |  |  |  |
| COC(=O)C(=O)C(C#N)c1cccc2ccccc12 (configuration not stated) | > 100 µM | 99.7 µM | > 100 µM |  | > 100 µM | > 100 µM | > 100 µM | > 100 µM | > 100 µM | > 100 µM |  |  |  |  |  |  |  |  |  |  |
| N#Cc1c(N)nn(C(=O)c2ccc(NC(=O)c3ccccn3)cc2)c1-c1ccc(Cl)cc1 | > 100 µM |  | > 100 µM | 24.5 µM | > 100 µM | > 100 µM | 68.3 µM | > 100 µM | 34.8 µM | > 100 µM | 8.65 µM |  | 5.68 µM | 3.11 µM | 5.52 µM | 6.42 µM | 4.34 µM | 15.1 µM | 3.77 µM | 3.68 µM |
| c1ccc([CH2][Sn]([CH2]c2ccccc2)([S]c2cccc3cccnc23)[S]c2cccc3cccnc23)cc1 |  |  | 0.864 µM |  | 0.511 µM | 1.19 µM |  | 0.95 µM | 0.998 µM | 0.334 µM |  |  | 0.201 µM |  | 0.221 µM | 0.303 µM |  | 0.288 µM | 0.273 µM | 0.139 µM |
| CCCOC(=O)C1CCC(=O)N1C(=O)C(Cl)Cl (configuration not stated) | > 100 µM | > 100 µM | > 100 µM |  | > 100 µM | > 100 µM | > 100 µM | > 100 µM | > 100 µM | > 100 µM |  |  |  |  |  |  |  |  |  |  |
| Cc1nc2c(cnn2-c2ccnc3c(C(F)(F)F)cccc23)c(=O)o1 | > 100 µM | > 100 µM | > 100 µM | > 100 µM |  | > 100 µM | > 100 µM | > 100 µM | > 100 µM | > 100 µM | > 100 µM | > 100 µM | > 100 µM | > 100 µM |  | > 100 µM | > 100 µM | > 100 µM | > 100 µM | > 100 µM |
| COC1OC(OC)C2C(c3c(C)cc(C)cc3C)=NOC12 (configuration not stated) | > 100 µM | > 100 µM | > 100 µM | > 100 µM | > 100 µM |  | > 100 µM |  | > 100 µM | > 100 µM |  |  |  |  |  |  |  |  |  |  |
| CCc1ccc(Cc2ccc(CC)c(NC(=O)C(=O)Cc3nc4ccccc4nc3C)c2CC)c(CC)c1NC(=O)C(=O)Cc1nc2ccccc2nc1C | > 100 µM | > 100 µM | > 100 µM | > 100 µM | > 100 µM |  | > 100 µM | > 100 µM | > 100 µM | > 100 µM |  |  |  |  |  |  |  |  |  |  |

Reference: PubChem BioAssay (NCI)
